Experimental data taken from patent publication EP0317956A2, “Anti-tumor prodrugs” (Bristol-Myers Squibb Company, priority 1987, dated 1989).

Experiments:
[1] = system: P388 leukemia; assay: In vivo tumor test, i.p. implanted P388 leukemia; set-up: species or system mice; settings: for Optimum Dose: P388, 10⁶ ascites cells i.p., single i.p. injection of drug, day 1; for Maximum Effect T/C: P388, T/C = median survival time (treated/control) X 100, single i.p. injection day 1, 30 days
Procedure: (§1) The in vivo tumor tests were performed utilizing methods described in detail in a previous publication (8). The lymphatic leukemias P-388 and L-1210 were used for initial testing of mitomycin and daunomycin derivatives respectively. Selected compounds were tested against subcutaneouly implanted B16 melanoma with treatment administered intravenously. Experimental parameters are shown in the footnotes of the accompanying tables.
(§2) Three murine tumor models were used to evaluate the in-vivo activities of the drugs.

[2] = system: B16 melanoma; assay: In vivo tumor test, subcutaneously implanted B16 melanoma; set-up: species or system mice; settings: for Optimum Dose / Maximum Effect T/C: B16 melanoma s.c., three i.v. injections, days 1, 5 and 9; for Maximum Effect T/C: 60 days; for antitumor activity: subcutaneously implanted B16 melanoma, i.v. days 1, 5 and 9
Procedure: as §1
Some of the MMC and MMA derivatives were tested for activity against subcutaneously implanted B16 melanoma. In these experiments, the drugs were administered i.v. on days 1,5 and 9 after implantation of the tumor. The cleavable MMC prodrugs, 20 and 21, were about as active as MMC. […] The cleavable prodrugs, 24 - 27, were as active as MMA, with 24 showing slightly greater activity.

[3] = system: L1210 leukemia; assay: In vivo tumor test, i.p. implanted L1210 leukemia; set-up: species or system mice; settings: for Optimum Dose: L1210, 10⁶ ascites cells i.p., single i.p. injection of drug, day 1; for Maximum Effect T/C: L1210, T/C = median survival time (treated/control) X 100, single i.p. injection day 1, 30 days; for in-vivo activity: L1210, optimal i.p. dose
Procedure: as §1, §2

[4] = Model study: stability and dithiothreitol-induced fragmentation of model benzyl carbamate disulfide; assay type: physicochemical
Source text: In order to establish that benzyl carbamates with suitably positioned disulfide substituents would undergo fragmentation of the carbamate upon disulfide reduction, model studies were undertaken using p-nitroaniline as a leaving group. The synthesis of the model benzyl carbamate 12 is depicted in Figure 1.
The course of reaction was monitored by uv/vis spectroscopy, in which 14 (λ max 371 nm) was easily distinguished from the starting material 12 (λ max 313nm). […] It was also observed that the release of 14 was slightly faster at 37°C than at room temperature.

Compound | Optimum Dose [1] | Maximum Effect T/C [1] | Optimum Dose [2] | Maximum Effect T/C [2] | other results
CO[C@@]12[C@H](COC(N)=O)C3=C(C(=O)C(C)=C(N)C3=O)N1C[C@H]1[C@@H]2N1C(=O)OCc1ccccc1SSc1ccccn1 [Compound 18, MMC Benzyl Carbamate Disulfide] | 51.2 mg/kg | 195 |  |  | 
CO[C@@]12[C@H](COC(N)=O)C3=C(C(=O)C(C)=C(N)C3=O)N1C[C@H]1[C@@H]2N1C(=O)OCc1ccc(SSc2ccccn2)cc1 [Compound 20, MMC Benzyl Carbamate Disulfide] | 25.6 mg/kg | 353 | 12.8 mg/kg/inj | 145 | 
COC1=C(C)C(=O)C2=C(C1=O)[C@@H](COC(N)=O)[C@@]1(OC)[C@H]3N[C@H]3CN21 [Compound 22, mitomycin A, reference compound] | 3.2 mg/kg | 180 | 0.4 mg/kg/inj | 182 | 
COc1cccc2c1C(=O)c1c(O)c3c(c(O)c1C2=O)C[C@@](O)(C(C)=O)C[C@@H]3O[C@H]1C[C@H](N)[C@H](O)[C@H](C)O1 [Compound 28, daunomycin, reference compound] |  |  |  |  | Optimum Dose [3]: 3.2 mg/kg; Maximum Effect T/C [3]: 154
COc1cccc2c1C(=O)c1c(O)c3c(c(O)c1C2=O)C[C@@](O)(C(C)=O)C[C@@H]3O[C@H]1C[C@H](NC(=O)OCc2ccccc2)[C@H](O)[C@H](C)O1 [Compound 29, DAU Benzyl Carbamate] |  |  |  |  | Optimum Dose [3]: 9.0 mg/kg; in-vivo activity [3]: inactive; Maximum Effect T/C [3]: 100
Benzyl Carbamate Disulfide [Compound 12] |  |  |  |  | stability in buffered aqueous methanol ([4]; aqueous methanol buffered between pH 6 to 8, no reducing agent): stable for several days; release of p-nitroaniline upon treatment with dithiothreitol ([4]; dithiothreitol, uv/vis and HPLC): p-nitroaniline was released
DAU Benzyl Carbamate Disulfide [Compound 30] |  |  |  |  | Optimum Dose [3]: 3.0 mg/kg; in-vivo activity [3]: inactive; Maximum Effect T/C [3]: 100
MMA Benzyl Carbamate Disulfide [Compound 23] |  |  | 6.4 mg/kg/inj | 124 | antitumor activity [2]: little activity
MMA Benzyl Carbamate Disulfide [Compound 25] | 3.2 mg/kg | 153 | 3.2 mg/kg/inj | 191 | 
MMA Benzyl Carbamate Disulfide [Compound 26] | 3.2 mg/kg | 163 | 3.2 mg/kg/inj | 182 | 
MMA Benzyl Carbamate Disulfide [Compound 27] | 12.8 mg/kg | 163 | 9.6 mg/kg/inj | 182 | 
MMC Benzyl Carbamate Disulfide [Compound 19] | 51.2 mg/kg | 185 |  |  | 
MMC Benzyl Carbamate Disulfide [Compound 21] | 12.8 mg/kg | 222 | 6.4 mg/kg/inj | 123 | 
MMC Benzyl Carbamate [Compound 17] | 12.8 mg/kg | 144 | 4.8 mg/kg/inj | 96 | antitumor activity [2]: little activity
mitomycin C [Compound 16, reference compound] | 3.2 mg/kg | 266 | 3.0 mg/kg/inj | 143 | 
